Reference: article PMC12005787, “Synthetic Lethality of SHP2 and XIAP Suppresses Proliferation and Metastasis in KRAS‐mutant Nonsmall Cell Lung Cancer” (Advanced Science, 2025)
Like-named read-outs stand apart in the source and are kept apart here. *1 amine or outer side, *2 acyl side, *3 side chain or, on linkers, in order; H or OH if unused. Where a SMILES comes first, the peptide text is derived from it. Bridges are numbered along the chain shown (N, C = ends). Roman numbers before positions name the chains, in order. [ ]: non-standard residue; d: D form. Hexamethylenediamine = C(CCCN[*:2])CCN[*:1]; Dip = N[C@H](C(=O)O)C(c1ccccc1)c1ccccc1; Chg = N[C@H](C(=O)O)C1CCCCC1; NMeA = CN[C@@H](C)C(=O)O

Assays:
[1] = molecular target: T1, SHP2 (Homo sapiens, UniProt Q06124); experiment: Cellular thermal shift assay (CETSA); assay type: binding; conditions: NCI‐H2122 cell lysate
T1 construct: endogenous in cells; host or cells: NCI-H2122
T1 sequence (Q06124 1-593): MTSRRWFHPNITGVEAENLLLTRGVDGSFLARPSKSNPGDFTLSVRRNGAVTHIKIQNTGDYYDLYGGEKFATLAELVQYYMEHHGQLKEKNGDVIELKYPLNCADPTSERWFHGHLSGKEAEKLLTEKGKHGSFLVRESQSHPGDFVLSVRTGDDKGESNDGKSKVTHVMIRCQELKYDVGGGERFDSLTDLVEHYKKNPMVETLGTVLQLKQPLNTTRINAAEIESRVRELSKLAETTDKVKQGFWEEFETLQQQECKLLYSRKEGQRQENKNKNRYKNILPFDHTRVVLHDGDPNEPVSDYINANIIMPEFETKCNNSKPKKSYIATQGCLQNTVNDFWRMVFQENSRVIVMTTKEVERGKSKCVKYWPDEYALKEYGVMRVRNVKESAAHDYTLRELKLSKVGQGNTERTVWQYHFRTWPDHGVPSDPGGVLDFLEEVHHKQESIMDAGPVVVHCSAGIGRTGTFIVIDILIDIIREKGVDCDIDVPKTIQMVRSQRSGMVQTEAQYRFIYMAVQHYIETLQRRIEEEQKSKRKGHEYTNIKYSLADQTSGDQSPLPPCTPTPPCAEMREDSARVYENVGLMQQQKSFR
Experimental: NCI‐H2122 cells were harvested and resuspended with pre‐cooled PBS containing 1% cocktail, which was then frozen in liquid nitrogen for 5 min and thawed in a water bath at 37 °C for 5 min for three repetitions. The supernatant was collected via centrifugation at 4 °C (15 000 × g, 20 min), divided into two equal portions; one was added with test drugs or various concentrations of embelin, and the other was added with DMSO as control and subsequently incubated at 25 °C for 30 min. All samples were heated at temperatures ranging from 52–70 °C for 3 min, and subsequently in an ice bath for 3 min and collected by centrifugation at 4 °C (15 000 × g, 20 min), and added with protein sampling buffer at 100 °C for 5 min, followed by analysis of protein stability using western blotting.

[2] = system: NCI-H2122, A549, and NCI-H1944 cells; experiment: Cell senescence β-galactosidase staining; assay type: cell-based, human; conditions: NCI‐H2122 cells; candidate drugs 10 μM
Experimental: Cell senescence β-galactosidase staining
NCI-H2122, A549, and NCI-H1944 cells in the logarithmic growth phase were seeded into 48-well plates and cultured overnight. The supernatant was aspirated and fresh serum-free (0%), low-serum (3%), or regular serum (10%) medium with different drugs was added for 48 h. When the supernatant was discarded, β-galactosidase staining fixation fluid were added for 15 min and β-galactosidase staining solution were imported overnight at 37 ℃.
Finally, the staining results were recorded using an inverted microscope.

[3] = system: A549 and NCI‐H2122 cells; experiment: Cell proliferation in monolayer culture (CCK-8); assay type: cell-based, human
Experimental: For the adherent cell viability assay, cells in the logarithmic growth phase were seeded in 96-well culture plates at a density of 5×103 well-1 and incubated overnight. Diluted compounds or DMSO were added, or specific treatments were incubated at 37 °C and 5% CO2 for 24 h or 48 h. Cell viability was determined using CCK-8 or CellLightTM Cell Viability Assay Kit, according to the manufacturer's protocol. The luminescence signals of the treated samples were normalized to those of the DMSO group. […]
Figure S7. Targeting SHP2 and XIAP produces a synthetic lethal effect. (A) Effects of NSC-87877 on cell viability of A549 and NCI-H2122 cells after 24 and 48 h were determined using the CCK-8. Bars, ± SEM. The curves were plotted using a variable slope (four-parameter) non-linear fit. (B, E, F, and I) Effects of Na3VO4 (B), birinapant (E), BV-6 (F), and LCL161 (I) on cell viability of human NCI-H2122 cells at 48 h were determined using the CCK-8. *p < 0.05, **p < 0.01 and ***p < 0.001 compared to control group (unpaired two-tailed Student’s t-test).(C, G) Effects of SHP099 (C) and GDC-0152 (G) on cell viability after 24 and 48 h were determined using the CCK-8. Bars, ± SEM. The curves were plotted using a variable slope (four-parameter) non-linear fit.(D, H) Effects of SHP099 (D) and GDC-0152 (H) on cell viability were determined after 48 h using intracellular ATP chemiluminescence. **p < 0.01 and ***p < 0.001 compared to control group (unpaired two-tailed Student’s t-test).(J) Effects of SHP099 and GDC-0152 separately and in combination, and the effect of embelin for 24 h on the cell viability were assessed using intracellular ATP […]
tailed Student’s t-test).(K) Effects of SHP099 and GDC-0152 separately and in combination with […] on the cell viability of human KRAS-WT and -mutant cells were assessed using a colony formation assay. (L, M) A549 and NCI-H2122 cells were instantaneously transfected with siPTPN11 and siXIAP separately and together for 24 h under

[4] = molecular target: T2, PTP1B (Homo sapiens, UniProt P18031); experiment: PTPs activity assay (DiFMUP); assay type: biochemical
T2 construct: His; made in house; host or cells: E. coli
T2 sequence (P18031 1-435): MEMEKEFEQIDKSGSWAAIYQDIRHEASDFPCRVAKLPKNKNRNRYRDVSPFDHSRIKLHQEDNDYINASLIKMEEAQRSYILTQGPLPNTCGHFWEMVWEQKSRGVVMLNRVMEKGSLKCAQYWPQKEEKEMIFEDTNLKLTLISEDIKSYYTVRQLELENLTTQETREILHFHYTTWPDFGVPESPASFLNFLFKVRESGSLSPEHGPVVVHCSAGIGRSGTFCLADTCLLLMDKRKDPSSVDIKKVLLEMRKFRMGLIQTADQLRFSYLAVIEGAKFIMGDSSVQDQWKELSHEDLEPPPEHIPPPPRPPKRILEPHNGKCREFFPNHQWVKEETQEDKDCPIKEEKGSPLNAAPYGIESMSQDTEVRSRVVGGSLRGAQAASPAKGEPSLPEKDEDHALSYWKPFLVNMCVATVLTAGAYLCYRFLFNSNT
Experimental: (§1) Catalytic activity screening methods for PTPs using candidate compounds were performed as previously described.^[ [77] ^] In brief, soluble fusion PTP proteins, His‐ΔSHP2, encompassing the peptide from amino acids 205–593 retaining PTP activity, His‐ΔSHP2^K325A, His‐ΔSHP1, encompassing the peptide from amino acids 202–595 retaining PTP activity, His‐PTP1B, His‐HePTP, His‐VHR, and His‐TCPTP were cloned, expressed, and purified in E. coli. After determining protein concentration using bicinchoninic acid (BCA) assay kit, 1 µg fusion protein, 10 µM library compound were added in 100 µL reaction mixture (55 mM 4‐(2‐hydroxyethyl)‐1‐piperazineethanesulfonic acid [HEPES], 100 mM sodium chloride [NaCl], 0.5 mM ethylenediaminetetraacetic acid [EDTA], 1 mM dithiothreitol [DTT], 0.01% Triton X‐100, 0.002% bovine serum albumin [BSA], and 0.1% dimethyl sulfoxide [DMSO]) and incubated at 37 °C for 30 min in the dark, with Na3VO4 as positive control. The detection substrate DiFMUP (50 µM) was promptly added to each reaction and functioned at 37 °C for 30 min in the dark. The fluorescence intensity was then measured using Multimode Plate Reader (λa = 358 nm, λe = 455 nm, PerkinElmer, USA).

[5] = molecular target: T3, HePTP (Homo sapiens, UniProt P35236); experiment: PTPs activity assay (DiFMUP); assay type: biochemical
T3 construct: His; made in house; host or cells: E. coli
T3 sequence (P35236 1-360): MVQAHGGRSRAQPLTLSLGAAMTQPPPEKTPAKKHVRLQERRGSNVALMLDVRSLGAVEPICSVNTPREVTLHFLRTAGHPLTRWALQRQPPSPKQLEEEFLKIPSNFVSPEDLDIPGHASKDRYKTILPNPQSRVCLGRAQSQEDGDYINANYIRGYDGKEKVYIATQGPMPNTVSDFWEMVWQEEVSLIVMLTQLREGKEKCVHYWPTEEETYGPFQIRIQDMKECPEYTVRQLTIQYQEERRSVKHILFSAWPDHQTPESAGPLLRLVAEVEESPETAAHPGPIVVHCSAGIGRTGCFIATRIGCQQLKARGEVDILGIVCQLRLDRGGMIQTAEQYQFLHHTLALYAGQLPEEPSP
Experimental: as §1

[6] = molecular target: T4, ΔSHP2 (Homo sapiens, UniProt Q06124); experiment: PTPs activity assay (DiFMUP); assay type: biochemical
T4 construct: His‐ΔSHP2, encompassing the peptide from amino acids 205–593 retaining PTP activity; His; made in house; host or cells: E. coli
T4 sequence (Q06124 205-593): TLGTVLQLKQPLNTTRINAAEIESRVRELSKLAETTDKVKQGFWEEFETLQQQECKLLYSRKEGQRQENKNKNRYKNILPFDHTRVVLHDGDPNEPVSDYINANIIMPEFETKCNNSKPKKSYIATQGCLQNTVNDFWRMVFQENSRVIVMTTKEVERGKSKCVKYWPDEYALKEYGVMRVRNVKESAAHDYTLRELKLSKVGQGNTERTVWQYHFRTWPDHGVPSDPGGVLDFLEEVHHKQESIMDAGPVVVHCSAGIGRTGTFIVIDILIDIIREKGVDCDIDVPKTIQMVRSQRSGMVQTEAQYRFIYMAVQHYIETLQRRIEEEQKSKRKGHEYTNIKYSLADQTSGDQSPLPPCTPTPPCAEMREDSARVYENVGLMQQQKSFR
Experimental: as §1

[7] = molecular target: T5, ΔSHP1 (Homo sapiens, UniProt P29350); experiment: PTPs activity assay (DiFMUP); assay type: biochemical
T5 construct: His‐ΔSHP1, encompassing the peptide from amino acids 202–595 retaining PTP activity; His; made in house; host or cells: E. coli
T5 sequence (P29350 202-595, stated change not applied): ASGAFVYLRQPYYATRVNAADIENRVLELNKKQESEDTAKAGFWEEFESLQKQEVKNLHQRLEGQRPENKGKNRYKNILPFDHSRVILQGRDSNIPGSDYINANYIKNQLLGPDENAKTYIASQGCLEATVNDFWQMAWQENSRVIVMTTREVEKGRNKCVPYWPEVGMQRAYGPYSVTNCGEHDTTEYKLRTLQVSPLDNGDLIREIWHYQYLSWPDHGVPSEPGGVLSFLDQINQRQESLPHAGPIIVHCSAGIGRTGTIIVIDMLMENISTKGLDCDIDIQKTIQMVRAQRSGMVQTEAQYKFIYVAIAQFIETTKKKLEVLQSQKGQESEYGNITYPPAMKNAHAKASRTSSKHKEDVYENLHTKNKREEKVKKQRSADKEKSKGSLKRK
Experimental: as §1

[8] = molecular target: T6, VHR (Homo sapiens, UniProt P51452); experiment: PTPs activity assay (DiFMUP); assay type: biochemical
T6 construct: His; made in house; host or cells: E. coli
T6 sequence (P51452 whole entry): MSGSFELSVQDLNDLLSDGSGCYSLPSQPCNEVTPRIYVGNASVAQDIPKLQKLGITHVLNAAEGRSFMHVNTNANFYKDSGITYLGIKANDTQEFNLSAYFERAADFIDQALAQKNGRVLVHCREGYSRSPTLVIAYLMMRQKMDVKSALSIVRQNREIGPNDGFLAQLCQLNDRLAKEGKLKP
Experimental: as §1

[9] = molecular target: T7, TCPTP (Homo sapiens, UniProt P17706); experiment: PTPs activity assay (DiFMUP); assay type: biochemical
T7 construct: His; made in house; host or cells: E. coli
T7 sequence (P17706 1-415): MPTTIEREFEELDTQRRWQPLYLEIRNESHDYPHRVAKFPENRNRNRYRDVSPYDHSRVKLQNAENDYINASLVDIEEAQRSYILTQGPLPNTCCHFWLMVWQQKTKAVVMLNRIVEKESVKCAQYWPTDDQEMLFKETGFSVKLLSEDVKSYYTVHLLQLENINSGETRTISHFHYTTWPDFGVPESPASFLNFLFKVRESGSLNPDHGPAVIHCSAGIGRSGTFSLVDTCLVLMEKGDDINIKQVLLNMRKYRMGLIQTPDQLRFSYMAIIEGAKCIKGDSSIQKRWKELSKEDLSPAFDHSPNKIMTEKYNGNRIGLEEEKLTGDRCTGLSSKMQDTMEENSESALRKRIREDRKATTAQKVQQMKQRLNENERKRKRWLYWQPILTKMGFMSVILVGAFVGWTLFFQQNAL
Experimental: as §1

Compound	effect on SHP2 protein stability (CETSA) [1]	induction of cell senescence [2]	effect on cell proliferation in monolayer cell culture mode [3]	IC50 [4]	IC50 [5]	IC50 [6]	IC50 [7]	IC50 [8]	IC50 [9]	IC50 ([4]; read-out: IC50 of PTPs PTP1B)
CN[C@@H](C)C(=O)N[C@H](C(=O)N1CCC[C@H]1C(=O)N[C@H](C(=O)NCCCCCCNC(=O)[C@@H](NC(=O)[C@@H]1CCCN1C(=O)[C@@H](NC(=O)[C@H](C)NC)C1CCCCC1)C(c1ccccc1)c1ccccc1)C(c1ccccc1)c1ccccc1)C1CCCCC1 [BV‐6] (I: H-[NMeA][Chg]P[Dip] / II: H-[NMeA][Chg]P[Dip]; linker I:C-II:C via Hexamethylenediamine)	did not affect SHP2 protein stability	induced cellular senescence	partially inhibited cell proliferation							
CC[C@H](NC(=O)[C@H](C)NC)C(=O)N1C[C@@H](O)C[C@H]1Cc1c(-c2[nH]c3cc(F)ccc3c2C[C@@H]2C[C@H](O)CN2C(=O)[C@H](CC)NC(=O)[C@H](C)NC)[nH]c2cc(F)ccc12 [Birinapant]	did not affect SHP2 protein stability	induced cellular senescence	almost no effect							
CN[C@@H](C)C(=O)N[C@H](C(=O)N1CCC[C@H]1c1nc(C(=O)c2ccc(F)cc2)cs1)C1CCCCC1 [LCL‐161]	did not affect SHP2 protein stability	induced cellular senescence	almost no effect							
CC(C)=CCC[C@]1(C)C=Cc2c(O)c3c(c(CC=C(C)C)c2O1)O[C@]12C(=C[C@@H]4C[C@H]1C(C)(C)O[C@@]2(C/C=C(/C)C(=O)O)C4=O)C3=O [S2448, Gambogic acid]				30.3 µM	> 200 µM	11.8 µM	> 200 µM	123 µM	294 µM	
Cc1cc2c(C(C)C)c(O)c(O)c(C=O)c2c(O)c1-c1c(C)cc2c(C(C)C)c(O)c(O)c(C=O)c2c1O [S2812, AT101]					135 µM	39.5 µM	197 µM	141 µM	197 µM	77.6 µM
CC1(C)CCC2=C(O1)c1ccccc1C(=O)C2=O [S7261, β‐Lapachone]					> 200 µM	34.2 µM	> 200 µM	> 200 µM	> 200 µM	> 200 µM
CC1(C)CCC(CN2CCN(c3ccc(C(=O)NS(=O)(=O)c4ccc(NCC5CCOCC5)c([N+](=O)[O-])c4)c(Oc4cnc5[nH]ccc5c4)c3)CC2)=C(c2ccc(Cl)cc2)C1 [S8048, Venetoclax]					20 µM	2.07 µM	81.3 µM	36.9 µM	9.43 µM	16.6 µM
